The results in this text go back to PubChem BioAssay (NCI).

“And” between values parts separate entries of the source, which are not always exact repeats. Equal entries are not always repeated.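 Grown in 96-well plates, cells were treated for 48 hours with each compound at five concentrations. Insufficient inhibition: endpoint recorded as highest concentration tested. GI50 = concentration required for 50% inhibition of growth. TGI: total growth inhibition.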 A value given as a limit tells only on which side of the number the result lay.

Some test systems named below: SW-620 colon; HL-60(TB) leukemia; KM12 colon; OVCAR-3 ovarian; SK-MEL-28 melanoma; COLO 205 colon; SF-268 CNS; UO-31 renal; EKVX NSCLC; OVCAR-8 ovarian.
Holding throughout (test): NCI tumour cell line growth inhibition, 48 h

On to `Clc1ccc(/C=C/c2nc(-c3ccc(Cl)cc3)cn3c2nc2ccccc23)cc1`, for which the TGI in the experiment with SW-620 colon, in the experiment on HL-60(TB) leukemia, in the experiment on KM12 colon, in the experiment on OVCAR-3 ovarian, in the experiment on SK-MEL-28 melanoma and in the experiment with COLO 205 colon was above 100 µM each time. For the same compound, the TGI with SF-268 CNS, in the experiment with UO-31 renal and with EKVX NSCLC was above 100 µM in each case.
As for `O=S(=O)(c1ccccc1)[C@@H]1[C@H]2C=C[C@](CS)(O2)[C@H]1S(=O)(=O)c1ccccc1`, the TGI in the experiment on SW-620 colon is 30.6 µM; in the experiment with HL-60(TB) leukemia, above 100 µM; with KM12 colon, above 100 µM; with OVCAR-3 ovarian, 63.5 µM; in the experiment on SK-MEL-28 melanoma, above 100 µM; in the experiment on OVCAR-8 ovarian it was above 100 µM. In addition, the TGI with COLO 205 colon, in the experiment on SF-268 CNS, in the experiment with UO-31 renal and with EKVX NSCLC was above 100 µM in each case.
On to `Oc1ccc(NCc2cc(O)ccc2O)cc1`, for which the TGI was above 100 µM in the experiment with SW-620 colon; 11.7 µM in the experiment on HL-60(TB) leukemia; 42 µM in the experiment with KM12 colon; 32 µM with OVCAR-3 ovarian; 45.7 µM in the experiment on SK-MEL-28 melanoma; above 100 µM in the experiment on OVCAR-8 ovarian. Moreover, the TGI in the experiment on COLO 205 colon is 62.3 µM; in the experiment with SF-268 CNS, 34.8 µM; with UO-31 renal, 29.4 µM; in the experiment on EKVX NSCLC, 31.2 µM.
In the case of `CCOC(=O)c1c(SC)nc(-c2ccc(Cl)cc2)sc1=N`, the TGI was above 100 µM in the experiment on SW-620 colon; 78.7 µM in the experiment with HL-60(TB) leukemia; above 100 µM with KM12 colon; above 100 µM with OVCAR-3 ovarian; above 100 µM in the experiment on SK-MEL-28 melanoma; 80 µM in the experiment on OVCAR-8 ovarian. The TGI in the experiment on COLO 205 colon was 44.9 µM; in the experiment with SF-268 CNS, above 100 µM; with UO-31 renal, above 100 µM; with EKVX NSCLC it was 55.2 µM.
For the compound `COc1cccc2c1C(=O)c1c(O)c3c(c(O)c1C2=O)C[C@@](O)(C(C)=O)C[C@@H]3OC1CC(N(C)C)C(O)C(C)O1` (stereo not given in full), the GI50 with SW-620 colon was 0.00484 µM; in the experiment with HL-60(TB) leukemia, 0.0402 µM; in the experiment on KM12 colon it was 0.0171 µM and 0.0131 µM; in the experiment on OVCAR-3 ovarian, 0.108 µM and 0.155 µM; in the experiment on SK-MEL-28 melanoma, 0.0475 µM; in the experiment on OVCAR-8 ovarian, 0.00719 µM. For the same compound, the GI50 in the experiment with COLO 205 colon is 0.0133 µM; in the experiment with SF-268 CNS it was below 0.0191 µM; with UO-31 renal, 0.0561 µM; with EKVX NSCLC, 0.126 µM and 0.0588 µM. The TGI was 0.622 µM and 1.56 µM in the experiment on SW-620 colon; 2.8 µM and 3.75 µM in the experiment with OVCAR-8 ovarian.
For `CC1C(O)[C@@]2(OC[C@@]34C(=O)CC5(O)[C@H](CCC6Cc7nc8c(nc7C[C@]65C)CC5CC[C@@H]6C7=C[C@H]9O[C@@]%10(O[C@@](C)(CO)C[C@@H]%10O)C(C)[C@@]9(O)[C@]7(C)[C@@H](O)CC6[C@]5(C)C8)C3=CC[C@H]4C2C)OC1(C)C` (stereo not given in full), the TGI with SW-620 colon was 0.0433 µM; in the experiment on HL-60(TB) leukemia it was 0.536 µM; in the experiment on KM12 colon, above 3.55 µM; with OVCAR-3 ovarian, above 3.55 µM; in the experiment on OVCAR-8 ovarian it was above 3.55 µM; with COLO 205 colon it was 0.361 µM. For the same compound, the results for the TGI in the experiment with SF-268 CNS, in the experiment with UO-31 renal and in the experiment with EKVX NSCLC were 0.37 µM, 0.134 µM and 0.499 µM, respectively.
With `COc1cc(CCC(=O)O)c2cc3ccccc3cc2c1O`, the TGI is 51.5 µM with SW-620 colon; 39.1 µM in the experiment with HL-60(TB) leukemia; 44.1 µM in the experiment on KM12 colon; 51.7 µM with OVCAR-3 ovarian; 48.4 µM in the experiment on SK-MEL-28 melanoma; 30.6 µM in the experiment on OVCAR-8 ovarian. Moreover, the TGI in the experiment with COLO 205 colon turned out to be 36.2 µM; in the experiment on SF-268 CNS it was 38.1 µM; with UO-31 renal, 35.7 µM; with EKVX NSCLC, 53.1 µM.
For the compound `O=NN(CCCl)C(=O)Nc1ccc(Cl)c(Cl)c1`, the TGI in the experiment with SW-620 colon, in the experiment on HL-60(TB) leukemia, in the experiment on KM12 colon, in the experiment with OVCAR-3 ovarian, in the experiment on SK-MEL-28 melanoma and with OVCAR-8 ovarian was above 100 µM throughout. Further, the TGI with COLO 205 colon was above 100 µM; in the experiment on SF-268 CNS, above 100 µM; with UO-31 renal it was 99.3 µM; in the experiment on EKVX NSCLC, above 100 µM.
Take `O=[N+]([O-])c1ccc(/C=N/n2c(CCc3n[nH]c(=S)n3/N=C/c3ccc([N+](=O)[O-])o3)n[nH]c2=S)o1`: the TGI in the experiment with SW-620 colon was 32.7 µM; in the experiment with HL-60(TB) leukemia, 97.7 µM; in the experiment on KM12 colon, 64.4 µM; in the experiment with OVCAR-3 ovarian, 54.2 µM; in the experiment with SK-MEL-28 melanoma it was 31.5 µM; in the experiment with OVCAR-8 ovarian, above 100 µM. Besides, the results for the TGI with SF-268 CNS, with UO-31 renal and in the experiment on EKVX NSCLC were 50.7 µM, 89.9 µM and above 100 µM, respectively.
As for `O=C1CSc2sc(=S)sc2S1`, the TGI with SW-620 colon, in the experiment with HL-60(TB) leukemia, in the experiment with KM12 colon, with OVCAR-3 ovarian, in the experiment on SK-MEL-28 melanoma and in the experiment with OVCAR-8 ovarian was above 100 µM each time. Also, the TGI with COLO 205 colon, in the experiment on SF-268 CNS, in the experiment on UO-31 renal and with EKVX NSCLC was above 100 µM in each case.
Consider `O=[P+](O)c1cccs1`, for which the TGI in the experiment on SW-620 colon, with HL-60(TB) leukemia, with SK-MEL-28 melanoma, in the experiment on OVCAR-8 ovarian, with COLO 205 colon and in the experiment with SF-268 CNS was above 100 µM in each case. Besides, the TGI with UO-31 renal and in the experiment on EKVX NSCLC was above 100 µM throughout.
Regarding `CC(C)(C)OC(=O)N1CCCC1C(=O)NCCNc1ccc(NCCNC(=O)C2CCCN2C(=O)OC(C)(C)C)c2c1C(=O)c1ccccc1C2=O` (stereo not given), the TGI in the experiment with SW-620 colon is 29.8 µM; with HL-60(TB) leukemia, above 100 µM; in the experiment on KM12 colon, 41.7 µM; in the experiment on OVCAR-3 ovarian, 27.1 µM; with SK-MEL-28 melanoma it was 35.6 µM; in the experiment on OVCAR-8 ovarian, 21 µM. The TGI is 27.5 µM with COLO 205 colon, above 100 µM in the experiment on SF-268 CNS and above 100 µM in the experiment on EKVX NSCLC.
Turning to `Cc1ccc(NC(=O)CC(=O)n2nc(-c3ccccc3)c(N=Nc3ccccc3C(=O)O)c2-c2ccccc2)cc1`, the TGI in the experiment on SW-620 colon, with KM12 colon, with OVCAR-3 ovarian, in the experiment with SK-MEL-28 melanoma, in the experiment on OVCAR-8 ovarian and with COLO 205 colon was above 100 µM in each case. For the same compound, the TGI in the experiment on SF-268 CNS, with UO-31 renal and with EKVX NSCLC was above 100 µM each time.
